Values of other authors in patent US8529964B1, “Method and composition for suppression and control of citrus canker and other plant diseases” (priority 2010, dated 2013).

Question: For `O.O.O=C([O-])c1ccccc1.O=C([O-])c1ccccc1.[Cu+2]` [copper benzoate dehydrate], which “water solubility (in words)” value is on record?
Answer: slightly water soluble
